Experimental data reported in patent publication US10434101B2, “Heterocyclic compounds and uses thereof” (Celgene CAR LLC, priority 2010, dated 2019).
Read-outs that look alike come from different tables or passages of the source.

Legend:
A431 cells (WT EGFR) = assay: Cell proliferation (CellTiter Glo, 72 hr) in A431 cells; assay type: cell-based; settings: Homo sapiens
Method: (§1) A431 human epidermoid carcinoma, H1975 human NSCLC and HCC827 human NSCLC adenocarcinoma cells were obtained from the American Type Culture Center (Manassas, Va.). A431 cells were grown in DMEM (Invitrogen, Carlsbad, Calif.) supplemented with 10% FBS (HyClone, South Logan, Utah) and 1% Penicillin-Streptomycin (P/S, Lonza, Walkersville, Md.).
(§2) Cells were plated in Growth Media supplemented with 5% FBS and 1% P/S at a density of 3,000 cells per well in 96 well tissue culture plates (Corning). […] Growth inhibition (GI50) values were determined by Graph Pad Prism.

[1] = system: HCC827 cells (EGFR delE746-A750); assay: Cell proliferation (CellTiter Glo, 72 hr) in HCC827 cells; assay type: cell-based, human; settings: Homo sapiens, read-out: HCC827 GI50
Method: as §1, §2

[2] = system: H1975 cells (EGFR L858R/T790M); assay: Cell proliferation (CellTiter Glo, 72 hr) in H1975 cells; assay type: cell-based, human; settings: Homo sapiens, read-out: H1975 GI50
Method: as §1, §2

[3] = A-431, A431 cells, 72 hr, read-out: WT EGFR GI50

GI50 (A431 cells (WT EGFR); [3]) | GI50 ([1]; HCC827 cells, 72 hr) | GI50 ([2]; NCI-H1975, H1975 cells, 72 hr) | GI50 (A431 cells (WT EGFR); A-431, read-out: Comparative GI50 Values, A431) | Compound | GI50 (A431 cells (WT EGFR); A-431, 72 h, read-out: WT EGFR GI50) | GI50 ([1]; HCC827, 72 h) | GI50 ([2]; NCI-H1975, 72 h)
> 1000 nM | 10 to 100 nM | 100 to 500 nM | – | C=CC(=O)Nc1cccc(Oc2nc(Nc3ccc(N4CCN(C(C)=O)CC4)cc3OC)ncc2Cl)c1 [Compound I-9, N-(3-(2-(4-(4-acetylpiperazin-1-yl)-2-methoxyphenylamino)-5-chloropyrimidin-4-yloxy)phenyl)acrylamide] | – | – | –
> 1000 nM | 10 to 100 nM | 100 to 500 nM | – | C=CC(=O)Nc1cccc(Oc2nc(Nc3ccc(N4CCOCC4)cc3OC(F)F)ncc2C(F)(F)F)c1 [Compound I-13, N-(3-(2-(2-(difluoromethoxy)-4-morpholinophenylamino)-5-(trifluoromethyl)pyrimidin-4-yloxy)phenyl)acrylamide] | – | – | –
> 1000 nM | 100 to 500 nM | 500 to 1000 nM | – | C=CC(=O)Nc1cccc(Oc2nc(Nc3ccc(N4CCN(C(=O)OC(C)(C)C)CC4)cc3OCC)ncc2Cl)c1 [Compound I-18, tert-butyl 4-(4-(4-(3-acrylamidophenoxy)-5-chloropyrimidin-2-ylamino)-3-ethoxyphenyl)piperazine-1-carboxylate] | – | – | –
> 1000 nM | 100 to 500 nM | 100 to 500 nM | – | C=CC(=O)Nc1cccc(Nc2nc(Nc3ccc(N4CCCN(C(=O)C(F)(F)F)CC4)cc3OC)ncc2C(F)(F)F)c1 [Compound I-19, N-(3-(2-(2-methoxy-4-(4-(2,2,2-trifluoroacetyl)-1,4-diazepan-1-yl)phenylamino)-5-(trifluoromethyl)pyrimidin-4-ylamino)phenyl)acrylamide] | – | – | –
– | – | – | – | C=CC(=O)Nc1cccc(Oc2nc(Nc3ccc(N4CCN(C(=O)OC)CC4)cc3OC)ncc2C(F)(F)F)c1 [Compound I-20, methyl 4-(4-(4-(3-acrylamidophenoxy)-5-(trifluoromethyl)pyrimidin-2-ylamino)-3-methoxyphenyl)piperazine-1-carboxylate] | > 1000 nM | 100 to 500 nM | 100 to 500 nM
> 1000 nM | 100 to 500 nM | 500 to 1000 nM | – | C=CC(=O)Nc1cccc(Oc2nc(Nc3ccc(N4CCN(C(=O)CC(C)(C)C)CC4)cc3OC)ncc2Cl)c1 [Compound I-23, N-(3-(5-chloro-2-(4-(4-(3,3-dimethylbutanoyl)piperazin-1-yl)-2-methoxyphenylamino)pyrimidin-4-yloxy)phenyl)acrylamide] | – | – | –
> 1000 nM | 10 to 100 nM | 100 to 500 nM | – | C=CC(=O)Nc1cccc(Oc2nc(Nc3ccc(N4CCN(S(N)(=O)=O)CC4)cc3OC)ncc2C(F)(F)F)c1 [Compound I-27, N-(3-(2-(2-methoxy-4-(4-sulfamoylpiperazin-1-yl)phenylamino)-5-(trifluoromethyl)pyrimidin-4-yloxy)phenyl)acrylamide] | – | – | –
> 1000 nM | 10 to 100 nM | 500 to 1000 nM | – | C=CC(=O)Nc1cccc(Nc2nc(Nc3ccc(N4CCN(C(=O)NC)CC4)cc3OC)ncc2C(F)(F)F)c1 [Compound I-28, 4-(4-(4-(3-acrylamidophenylamino)-5-(trifluoromethyl)pyrimidin-2-ylamino)-3-methoxyphenyl)-N-methylpiperazine-1-carboxamide] | – | – | –
> 1000 nM | 10 to 100 nM | 10 to 100 nM | – | C=CC(=O)Nc1cccc(Nc2nc(Nc3ccc(N4CCN(C(=O)OC)CC4)cc3OC)ncc2C(F)(F)F)c1 [Compound I-29, methyl 4-(4-(4-(3-acrylamidophenylamino)-5-(trifluoromethyl)pyrimidin-2-ylamino)-3-methoxyphenyl)piperazine-1-carboxylate] | – | – | –
> 1000 nM | 10 to 100 nM | 10 to 100 nM | – | C=CC(=O)Nc1cccc(Nc2nc(Nc3ccc(N4CCN(C(=O)CC)CC4)cc3OC)ncc2C(F)(F)F)c1 [Compound I-35, N-(3-(2-(2-methoxy-4-(4-propionylpiperazin-1-yl)phenylamino)-5-(trifluoromethyl)pyrimidin-4-ylamino)phenyl)acrylamide] | – | – | –
– | – | – | 4 nM | CCOc1cc2ncc(C#N)c(Nc3ccc(OCc4ccccn4)c(Cl)c3)c2cc1NC(=O)/C=C/CN(C)C [HKI-272, reference compound] | – | – | –
